From US20160230142A1, “CORNEAL STROMAL KERATOCYTE CULTURE” (SINGAPORE HEALTH SERVIES PTE LTD., priority 2013, published 2016)

Key:
Type in all cases: cell-based
primary human CSKs = assay: F-actin stress fiber pattern by phalloidin staining (stress index)
Method: Cornea specimens were washed in sterile PBS (0.01 M, Invitrogen, Carlsbad, Calif., US) added with 3% antibiotics-antimycotes (penicillin S, streptomysin sulfate and amphoptericin B, Invitrogen). Central corneal buttons (1 mm from peripheral limbus) were trephined and treated with dispase II (20 mg/ml, Roche, Basal, Switzerland) to remove corneal epithelium and endothelium. The stroma tissue was trimmed into small fragments (˜1 mm^3 in size) and digested with collagenase I (0.1%, Worthington, Lakewood, N.J., US) in keratocyte basal medium (KBM) for 8 to 10 hours at 37° C. After repeat pipetting, the cell suspension was passed through cell strainer (40 μm pore size), followed by centrifugation at 400 g for 5 min at room temperature. […]
The samples were fixed with freshly prepared 2% neutral buffered paraformaldehyde (Sigma), quenched with ice-cold 50 mM ammonium chloride (Sigma) and permeabilized with 0.15% saponin (Sigma). […] Results were visualized under fluorescence microscopy (Carl Zeiss) or confocal laser-scanning microscopy (LSM 510 Meta, Carl Zeiss).
[…] The percentage of stress cells in triplicate experiments was expressed as mean±SD. Results were compared and analyzed by paired Student's t-test and Dunn-Bonferroni correction.

[1] = tested on: human CSKs (at passage 6); assay: Collagen gel contraction assay; conditions: TGFβ1 (20 ng/ml) added to KBM with 2% FBS, 48 hours
Method: Bovine type I collagen gels were made to a final concentration of 2.5 mg/ml as liquid with KBM and supplements. It was mixed with cells at a density of 10^5 cells/ml and 0.5 ml mixture was added to each well of 24-multiwell plate coated with 1% BSA. It was allowed to gelation at 37° C. for 1 hour before addition of appropriate medium. After 24 hours, the gel was released from the side of culture well with a sterile needle to initiate contraction. The collagen gel size change was recorded at 48-hour interval and measured using Image J software (NIH). The percentages of collagen gel size to the size of culture well were compared among different treatments. Experiment was done in quadruplicate and the percentages of gel contraction were represented as median and interquartile range. Intergroup significance was calculated by Mann-Whitney U test.

Smad2/3 = assay: TGFβ-mediated nuclear localization of Smad2/3 (immunofluorescence); conditions: TGFβ1 10 ng/ml, human CSKs at passage 5
Method: The samples were fixed with freshly prepared 2% neutral buffered paraformaldehyde (Sigma), quenched with ice-cold 50 mM ammonium chloride (Sigma) and permeabilized with 0.15% saponin (Sigma). After blocking with 2% bovine serum albumin (Sigma) and 2% normal goat serum (Invitrogen), the cells were incubated with primary antibody recognizing aldehyde dehydrogenase 1A1 (ALDH1A1, Proteintech), lumican (LUM, Bioss), transketolase (Tkt, Cell Signalling), αSMA (Sigma) or Alexa Fluor 543-conjugated phalloidin (Sigma), respectively. The secondary antibodies were either Alexa488 or Rhodamine Red-X-conjugated (Jackson ImmunoRes Lab, West Grove, Pa.). All nuclei were counterstained with DAPI (4′,6-diamidino-2-phenylindole, Santa Cruz) and samples were mounted in FluorShield (Sigma). Results were visualized under fluorescence microscopy (Carl Zeiss) or confocal laser-scanning microscopy (LSM 510 Meta, Carl Zeiss).
To examine if LAE (ASE) was effective in suppressing CSK transition to fibroblasts, TGFβ-mediated nuclear localization of Smad2/3 was studied.

With `C[C@@H](N)[C@H]1CC[C@H](C(=O)Nc2ccncc2)CC1` [Y27632, (1R,4r)-4-((R)-1-aminoethyl)-N-(pyridin-4-yl)cyclohexanecarboxamide] the “stress index (percentage of cells with stress fibre pattern)” value (primary human CSKs; Y27632 (10 μM) added to KBM+0.5% FBS, 5 random fields) was 7.6±2.9%.

“IGF1: insulin-like growth factor 1 (10 ng/ml, Invitrogen)” was tested, and the “cells with stress F-actin fibre” value (primary human CSKs; IGF1-treated cells with 0.5% FBS) was 29.3±7.3%.

TGFβ1: recombinant human TGFβ1 was tested, and the “gel contraction (median)” value [1] was 91.7%, the “cells with nuclear Smad2/3” value (Smad2/3; 3 days) was 43.8% and the “cells with nuclear Smad2/3” value (Smad2/3; incubated for 3 hours) was 22%.
